Source: PubChem BioAssay (NCI)
Where “and” joins values, the source holds several entries; their conditions need not be identical. Identical values can stand only once.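 Following 48 hours of exposure in 96-well plates, responses at five concentrations were used to interpolate endpoints linearly. Here, GI50 denotes the concentration required for 50% inhibition of growth. TGI marks complete inhibition of growth.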

Assays:
Experiment in all cases: NCI tumour cell line growth inhibition, 48 h
M14 melanoma = tested on: M14 melanoma
MOLT-4 leukemia = tested on: MOLT-4 leukemia
ACHN renal = tested on: ACHN renal
DMS 273 small cell lung = tested on: DMS 273 small cell lung
K-562 leukemia = tested on: K-562 leukemia
RXF-631 renal = tested on: RXF-631 renal
SF-295 CNS = tested on: SF-295 CNS
RPMI-8226 leukemia = tested on: RPMI-8226 leukemia
DMS 114 small cell lung = tested on: DMS 114 small cell lung
KM20L2 colon = tested on: KM20L2 colon
DLD-1 colon = tested on: DLD-1 colon
CAKI-1 renal = tested on: CAKI-1 renal
EKVX NSCLC = tested on: EKVX NSCLC
CCRF-CEM leukemia = tested on: CCRF-CEM leukemia
UACC-257 melanoma = tested on: UACC-257 melanoma
SNB-75 CNS = tested on: SNB-75 CNS
UACC-62 melanoma = tested on: UACC-62 melanoma
TK-10 renal = tested on: TK-10 renal
SK-MEL-28 melanoma = tested on: SK-MEL-28 melanoma
NCI-H23 lung = tested on: NCI-H23 lung
SNB-78 CNS = tested on: SNB-78 CNS
OVCAR-8 ovarian = tested on: OVCAR-8 ovarian
OVCAR-5 ovarian = tested on: OVCAR-5 ovarian
HCC-2998 colon = tested on: HCC-2998 colon
U251 CNS = tested on: U251 CNS
LOX IMVI melanoma = tested on: LOX IMVI melanoma
SN12C renal = tested on: SN12C renal
LXFL 529 NSCLC = tested on: LXFL 529 NSCLC
MALME-3M melanoma = tested on: MALME-3M melanoma
SK-MEL-2 melanoma = tested on: SK-MEL-2 melanoma
SNB-19 CNS = tested on: SNB-19 CNS
SK-OV-3 ovarian = tested on: SK-OV-3 ovarian
UO-31 renal = tested on: UO-31 renal
SK-MEL-5 melanoma = tested on: SK-MEL-5 melanoma
OVCAR-4 ovarian = tested on: OVCAR-4 ovarian
NCI-H522 lung = tested on: NCI-H522 lung
A549 NSCLC = tested on: A549 NSCLC
HCT-15 colon = tested on: HCT-15 colon
IGROV1 ovarian = tested on: IGROV1 ovarian
HL-60(TB) leukemia = tested on: HL-60(TB) leukemia
SW-620 colon = tested on: SW-620 colon
KM12 colon = tested on: KM12 colon
COLO 205 colon = tested on: COLO 205 colon
RXF 393 renal = tested on: RXF 393 renal
HT29 colon = tested on: HT29 colon
SF-268 CNS = tested on: SF-268 CNS
SF-539 CNS = tested on: SF-539 CNS
XF 498 CNS = tested on: XF 498 CNS
PC-3 prostate = tested on: PC-3 prostate
SR leukemia = tested on: SR leukemia
MDA-MB-231 breast = tested on: MDA-MB-231 breast
786-0 renal = tested on: 786-0 renal
MDA-N = tested on: MDA-N
BT-549 breast = tested on: BT-549 breast
OVCAR-3 ovarian = tested on: OVCAR-3 ovarian
HOP-18 NSCLC = tested on: HOP-18 NSCLC
HOP-62 NSCLC = tested on: HOP-62 NSCLC
HOP-92 NSCLC = tested on: HOP-92 NSCLC
M19-MEL melanoma = tested on: M19-MEL melanoma
NCI-H460 lung = tested on: NCI-H460 lung
NCI-H226 lung = tested on: NCI-H226 lung
HCT-116 colon = tested on: HCT-116 colon
A498 renal = tested on: A498 renal

## c1ccc2cc3n[se]nc3cc2c1
M14 melanoma
  TGI: > 100 µM
MOLT-4 leukemia
  TGI: > 100 µM
ACHN renal
  TGI: > 100 µM
DMS 273 small cell lung
  TGI: > 100 µM
K-562 leukemia
  TGI: > 100 µM
RXF-631 renal
  TGI: > 100 µM
SF-295 CNS
  TGI: > 100 µM
RPMI-8226 leukemia
  TGI: > 100 µM
DMS 114 small cell lung
  TGI: > 100 µM
KM20L2 colon
  TGI: > 100 µM
DLD-1 colon
  TGI: > 100 µM
CAKI-1 renal
  TGI: > 100 µM
EKVX NSCLC
  TGI: > 100 µM
CCRF-CEM leukemia
  TGI: > 100 µM
UACC-257 melanoma
  TGI: > 100 µM
SNB-75 CNS
  TGI: > 100 µM
UACC-62 melanoma
  TGI: > 100 µM
TK-10 renal
  TGI: > 100 µM
SK-MEL-28 melanoma
  TGI: > 100 µM
NCI-H23 lung
  TGI: > 100 µM
SNB-78 CNS
  TGI: > 100 µM
OVCAR-8 ovarian
  TGI: > 100 µM
OVCAR-5 ovarian
  TGI: > 100 µM
HCC-2998 colon
  TGI: > 100 µM
U251 CNS
  TGI: > 100 µM
LOX IMVI melanoma
  TGI: > 100 µM
SN12C renal
  TGI: > 100 µM
LXFL 529 NSCLC
  TGI: > 100 µM
MALME-3M melanoma
  TGI: > 100 µM
SK-MEL-2 melanoma
  TGI: > 100 µM
SNB-19 CNS
  TGI: > 100 µM
SK-OV-3 ovarian
  TGI: > 100 µM
UO-31 renal
  TGI: > 100 µM
SK-MEL-5 melanoma
  TGI: > 100 µM
OVCAR-4 ovarian
  TGI: > 100 µM
NCI-H522 lung
  TGI: > 100 µM
A549 NSCLC
  TGI: > 100 µM
HCT-15 colon
  TGI: > 100 µM
IGROV1 ovarian
  TGI: > 100 µM
HL-60(TB) leukemia
  TGI: > 100 µM
SW-620 colon
  TGI: > 100 µM
KM12 colon
  TGI: > 100 µM
COLO 205 colon
  TGI: > 100 µM
RXF 393 renal
  TGI: > 100 µM
HT29 colon
  TGI: > 100 µM
SF-268 CNS
  TGI: > 100 µM
SF-539 CNS
  TGI: > 100 µM

## CO[C@H](/C(C)=C/C=C/C(C)=C/c1coc(C)n1)[C@H](C)[C@H]1C[C@@H](O)[C@@]2(C)O[C@H]2/C=C/[C@@H](C)[C@@H]2C[C@@H](CC(=O)O2)C[C@H]2O[C@@H]2C(=O)O1
M14 melanoma
  GI50: 0.1 pM
XF 498 CNS
  TGI: 2.25 µM and 0.576 µM
ACHN renal
  TGI: > 64 µM
KM20L2 colon
  TGI: 0.0005 µM
PC-3 prostate
  TGI: 2.37 pM
UACC-257 melanoma
  TGI: 5 µM and 50 µM and 11.4 µM
TK-10 renal
  GI50: 0.042 µM
  TGI: > 69.5 µM
SR leukemia
  TGI: > 100 µM
OVCAR-5 ovarian
  TGI: 3.99 µM and 31 µM and > 31.6 µM
MDA-MB-231 breast
  GI50: 0.942 pM
786-0 renal
  GI50: 0.106 pM
MDA-N
  TGI: 2.15 pM
BT-549 breast
  GI50: 0.0133 nM
  TGI: 2.81 µM

## Nc1nc(N)c(-c2ccccc2)c(C(=O)Nc2ccc(Cl)c(Cl)c2)n1
M14 melanoma
  TGI: > 100 µM
MOLT-4 leukemia
  TGI: > 100 µM
ACHN renal
  TGI: > 100 µM
DMS 273 small cell lung
  TGI: > 100 µM
K-562 leukemia
  TGI: > 100 µM
RXF-631 renal
  TGI: > 100 µM
SF-295 CNS
  TGI: > 100 µM
OVCAR-3 ovarian
  TGI: > 100 µM
RPMI-8226 leukemia
  TGI: > 100 µM
DMS 114 small cell lung
  TGI: > 100 µM
KM20L2 colon
  TGI: > 100 µM
HOP-18 NSCLC
  TGI: > 100 µM
HOP-62 NSCLC
  TGI: > 100 µM
DLD-1 colon
  TGI: > 100 µM
CAKI-1 renal
  TGI: > 100 µM
EKVX NSCLC
  TGI: > 100 µM
UACC-257 melanoma
  TGI: > 100 µM
SNB-75 CNS
  TGI: > 100 µM
HOP-92 NSCLC
  TGI: > 100 µM
UACC-62 melanoma
  TGI: > 100 µM
M19-MEL melanoma
  TGI: > 100 µM
TK-10 renal
  TGI: > 100 µM
SK-MEL-28 melanoma
  TGI: > 100 µM
NCI-H460 lung
  TGI: > 100 µM
NCI-H23 lung
  TGI: > 100 µM
SNB-78 CNS
  TGI: > 100 µM
OVCAR-8 ovarian
  TGI: > 100 µM
NCI-H226 lung
  TGI: > 100 µM
OVCAR-5 ovarian
  TGI: > 100 µM
HCC-2998 colon
  TGI: > 100 µM
U251 CNS
  TGI: > 100 µM
LOX IMVI melanoma
  TGI: > 100 µM
SN12C renal
  TGI: > 100 µM
HCT-116 colon
  TGI: > 100 µM
LXFL 529 NSCLC
  TGI: > 100 µM
786-0 renal
  TGI: > 100 µM
MALME-3M melanoma
  TGI: > 100 µM
SK-MEL-2 melanoma
  TGI: > 100 µM
SNB-19 CNS
  TGI: > 100 µM
UO-31 renal
  TGI: > 100 µM
SK-MEL-5 melanoma
  TGI: > 100 µM
OVCAR-4 ovarian
  TGI: > 100 µM
A549 NSCLC
  TGI: > 100 µM
HCT-15 colon
  TGI: > 100 µM
IGROV1 ovarian
  TGI: > 100 µM
HL-60(TB) leukemia
  TGI: > 100 µM
SW-620 colon
  TGI: > 100 µM
KM12 colon
  TGI: > 100 µM
RXF 393 renal
  TGI: > 100 µM
HT29 colon
  TGI: > 100 µM
A498 renal
  TGI: > 100 µM
SF-268 CNS
  TGI: > 100 µM
SF-539 CNS
  TGI: > 100 µM

## CC(=O)O[C@H]1CCC2[C@@H]3CCC4C(=O)c5oncc5C[C@]4(C)C3CC[C@@]21C (some centres undefined)
M14 melanoma
  TGI: > 100 µM
XF 498 CNS
  TGI: > 100 µM
MOLT-4 leukemia
  TGI: > 100 µM
ACHN renal
  TGI: > 100 µM
DMS 273 small cell lung
  TGI: > 100 µM
K-562 leukemia
  TGI: > 100 µM
SF-295 CNS
  TGI: > 100 µM
OVCAR-3 ovarian
  TGI: > 100 µM
RPMI-8226 leukemia
  TGI: > 100 µM
DMS 114 small cell lung
  TGI: > 100 µM
KM20L2 colon
  TGI: > 100 µM
HOP-62 NSCLC
  TGI: > 100 µM
DLD-1 colon
  TGI: > 100 µM
EKVX NSCLC
  TGI: > 100 µM
CCRF-CEM leukemia
  TGI: > 100 µM
UACC-257 melanoma
  TGI: > 100 µM
SNB-75 CNS
  TGI: > 100 µM
HOP-92 NSCLC
  TGI: > 100 µM
UACC-62 melanoma
  TGI: > 100 µM
M19-MEL melanoma
  TGI: > 100 µM
TK-10 renal
  TGI: > 100 µM
SK-MEL-28 melanoma
  TGI: > 100 µM
NCI-H460 lung
  TGI: > 100 µM
NCI-H23 lung
  TGI: > 100 µM
SNB-78 CNS
  TGI: > 100 µM
OVCAR-8 ovarian
  TGI: > 100 µM
OVCAR-5 ovarian
  TGI: > 100 µM
HCC-2998 colon
  TGI: > 100 µM
U251 CNS
  TGI: > 100 µM
LOX IMVI melanoma
  TGI: > 100 µM
SN12C renal
  TGI: > 100 µM
LXFL 529 NSCLC
  TGI: > 100 µM
786-0 renal
  TGI: > 100 µM
MALME-3M melanoma
  TGI: > 100 µM
SK-MEL-2 melanoma
  TGI: > 100 µM
SK-OV-3 ovarian
  TGI: > 100 µM
SK-MEL-5 melanoma
  TGI: > 100 µM
OVCAR-4 ovarian
  TGI: > 100 µM
A549 NSCLC
  TGI: > 100 µM
HCT-15 colon
  TGI: > 100 µM
IGROV1 ovarian
  TGI: > 100 µM
HL-60(TB) leukemia
  TGI: > 100 µM
SW-620 colon
  TGI: > 100 µM
KM12 colon
  TGI: > 100 µM
COLO 205 colon
  TGI: > 100 µM
RXF 393 renal
  TGI: > 100 µM
HT29 colon
  TGI: > 100 µM
A498 renal
  TGI: > 100 µM
SF-268 CNS
  TGI: > 100 µM
